Laboratory results: paper PMC5342526, “Identification of Bisindolylmaleimide IX as a potential agent to treat drug-resistant BCR-ABL positive leukemia” (Oncotarget, 2016)

Key:
HCT116 cells = test: Wst-1 cell survival assay; conditions: HCT116, compared to other genotoxic drugs such as Itu
[1] = tested on: intravenously injected T315I BCR-ABL positive BaF3 cells; test: Lifespan of nude mice after intravenous cell injection; format: in vivo, mouse; conditions: 2 or 4 mg/kg every day
Procedure: (§1) For solid tumor models, the mice were injected with 4 mg / kg of Bisindolylmaleimide IX or solvent. The length (L) and width (W) of the tumor were measured by a digital caliper and expressed as tumor volume (0.5 L×W^2, mm^3). The body weight and the lifespan of the mice with intravenous injection of BaF3 cells were monitored every day. For B-Raf knockdown, lentivirus-mediated expressing shRNA against B-Raf was used.

[2] = tested on: intravenously injected BCR-ABL positive BaF3 cells; test: as above; format: in vivo, mouse; conditions: 2 or 4 mg/kg every day
Procedure: as §1

BCR-ABL MEF cells = test: Wst-1 cell survival assay; conditions: Mus musculus, 24 h, read-out: IC50, cell survival
Procedure: (§2) We then evaluated the cytotoxic effect of Bisindolylmaleimide IX in MEFs and HCT116 cells. Different doses of Bisindolylmaleimide IX were applied to the cell cultures and cell survival rates and IC50 were determined with Wst-1 assay.
(§3) To measure cell survival rates after Bisindolylmaleimide IX treatment, cells were plated at 1×10^4 in 96 well plates and cultured for overnight, which were then treated with Bisindolylmaleimide IX for 48 hrs. Cell proliferation reagent WST-1 (Roche) was added to each well and was further incubated for 4 hrs at 37°C. The absorbance was measured against a control using microplate reader at 440 nm. The reference wavelength was 630 nm.

[3] = tested on: Erk in BCR-ABL-expressing BaF3 cells; test: Erk activation, western blot; format: cell-based, murine; conditions: BCR-ABL-expressing BaF3 cells but not control cells, 4 hrs
Procedure: Activation and expression of Erk, Mek1, and Raf were determined by western blot. B. Inhibition of Erk decreased the cell survival rates in BaF3 cells expressing BCR-ABL compared to control cells. […] C. […] N=3. Right panel: Western blot results showing that B-Raf was knocked down in these cells.

Vector MEF cells = test: Wst-1 cell survival assay; conditions: Mus musculus, 24 h, read-out: IC50, cell survival
Procedure: as §2, §3

BCR-ABL in BaF3 cells = test: BCR-ABL activation in cells, anti-phospho-Tyr western blot; conditions: 4 hrs
Procedure: BaF3 cells infected with empty retrovirus or retrovirus expressing BCR-ABL were treated with different doses of Bisindolylmaleimide IX for 4 hrs. Activation and expression of BCR-ABL were determined by western blot. Activation of BCR-ABL was determined by anti-phospho-Tyr antibodies.
Cells were lysed in TNEN buffer (50 mM Tris, 150 mM NaCl, 5 mM EDTA, 0.5% NP-40, and 0.1% Triton X-100) supplemented with 1 mM NaF, Na2VO3, 1 mM PMSF, and 1 μg/ml of aprotonin, leupeptin, and pepstatin A. Protein concentrations were determined using a Bio-Rad assay. Proteins were resolved by SDS-PAGE and transferred to polyvinylidene difluoride membranes (Millipore). […] Antibodies against p-Tyr were from Merck Millipore Corporation.

DNA topoisomerase = test: DNA relaxation assay with extracts of treated MEFs; format: cell-based, mouse; conditions: supercoiled pBluescript plasmid DNA as template
Procedure: Bisindolylmaleimide IX and other derivatives were added to MEF cultures and 24 hrs later, the cells were washed with PBS and harvested in TNE buffer. The control and Bisindolylmaleimide IX-treated cell extracts were directly used to test the topoisomerase activity using a kit from Topogen (Port Orange, USA) following the manufacturer's protocol, or pBluescript DNA as a template. The in vitro incubation lasted 30 min at room temperature. A 2% agarose gel was run to analyze DNA unwinding (Topogen) or 0.8% gel for pBluescript DNA.

Vector BaF3 cells = test: Wst-1 cell survival assay; format: cell-based, murine; conditions: Mus musculus, Vector BaF3, 24 hrs
Text: The reference wavelength was 630 nm.

Jak2 = Jak2 (Homo sapiens, UniProt O60674); test: Z'-LYTE in vitro kinase assay; format: biochemical; conditions: mean ±SEM
Chain of Jak2 (O60674 whole entry, species assumed): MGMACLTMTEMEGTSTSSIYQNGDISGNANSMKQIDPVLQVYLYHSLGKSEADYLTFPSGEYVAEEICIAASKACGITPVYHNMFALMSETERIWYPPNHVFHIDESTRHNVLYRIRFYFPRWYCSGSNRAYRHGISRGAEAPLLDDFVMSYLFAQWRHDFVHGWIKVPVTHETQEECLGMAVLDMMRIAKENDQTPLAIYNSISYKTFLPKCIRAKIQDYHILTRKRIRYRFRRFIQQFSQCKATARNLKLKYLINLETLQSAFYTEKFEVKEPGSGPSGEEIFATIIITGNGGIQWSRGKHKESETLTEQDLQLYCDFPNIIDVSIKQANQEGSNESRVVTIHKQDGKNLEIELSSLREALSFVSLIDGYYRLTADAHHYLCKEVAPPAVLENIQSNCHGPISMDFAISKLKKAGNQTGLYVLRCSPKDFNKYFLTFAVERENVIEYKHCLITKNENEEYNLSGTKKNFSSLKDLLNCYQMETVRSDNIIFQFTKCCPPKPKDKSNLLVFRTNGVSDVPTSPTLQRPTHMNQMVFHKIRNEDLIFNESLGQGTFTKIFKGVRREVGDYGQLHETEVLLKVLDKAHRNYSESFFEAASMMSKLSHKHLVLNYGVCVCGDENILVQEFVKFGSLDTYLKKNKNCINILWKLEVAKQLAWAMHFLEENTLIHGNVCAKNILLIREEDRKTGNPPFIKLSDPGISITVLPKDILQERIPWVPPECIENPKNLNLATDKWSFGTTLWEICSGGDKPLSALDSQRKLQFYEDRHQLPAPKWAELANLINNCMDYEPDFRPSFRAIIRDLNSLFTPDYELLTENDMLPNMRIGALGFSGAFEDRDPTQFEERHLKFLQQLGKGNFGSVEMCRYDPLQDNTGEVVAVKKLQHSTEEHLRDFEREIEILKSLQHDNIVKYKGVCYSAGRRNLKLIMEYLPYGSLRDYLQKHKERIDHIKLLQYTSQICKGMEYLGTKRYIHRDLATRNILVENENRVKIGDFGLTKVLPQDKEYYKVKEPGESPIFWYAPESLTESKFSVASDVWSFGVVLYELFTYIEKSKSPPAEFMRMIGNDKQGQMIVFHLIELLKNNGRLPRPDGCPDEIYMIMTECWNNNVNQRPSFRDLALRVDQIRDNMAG

[4] = tested on: tumors derived from T315I BCR-ABL-expressing BaF3 cells; test: Subcutaneous solid tumor model in nude mice; format: in vivo, mouse; conditions: 4 mg/kg
Procedure: as §1

[5] = tested on: tumors derived from BCR-ABL-expressing BaF3 cells; test: Subcutaneous solid tumor model in nude mice; format: in vivo, mouse; conditions: 4 mg/kg
Procedure: as §1

p53 in primary MEFs = test: p53 protein level by western blot (screen)
Procedure: Cells were lysed in TNEN buffer (50 mM Tris, 150 mM NaCl, 5 mM EDTA, 0.5% NP-40, and 0.1% Triton X-100) supplemented with 1 mM NaF, Na2VO3, 1 mM PMSF, and 1 μg/ml of aprotonin, leupeptin, and pepstatin A. Protein concentrations were determined using a Bio-Rad assay. Proteins were resolved by SDS-PAGE and transferred to polyvinylidene difluoride membranes (Millipore).

γH2AX foci in MEFs = test: γH2AX DNA damage foci, immunofluorescent staining; format: cell-based, mouse; conditions: 2.5 μM, 4 hrs
Procedure: MEFs or HCT116 cells were cultured on cover slips while Baf3 cells were cultured on slides coated by 0.1mg/ml poly-L-lysine, washed with phosphate-buffered saline (PBS) twice, and then fixed in 4% paraformaldehyde (PFA), which were permeabilized with 0.1% Triton X in PBS for 30 minutes at room temperature. The primary antibodies were diluted in PBS with 1% BSA (1:200). The slides were blocked (1% BSA in PBS) for 60 minutes at room temperature, incubated with primary antibodies overnight at 4°C, and followed by secondary antibody incubation for 60 min at RT. The slides were then mounted and observed under confocal microscope (Leica, Germany). Antibodies against γH2AX were from Bethyl Corporation.

BCR-ABL BaF3 cells = conditions: BCR-ABL BaF3, 24 hrs, compared among bisindolylmaleimide derivatives
primary MEFs = test: Wst-1 cell survival assay
Procedure: as §2, §3

MEFs = test: Cell cycle analysis by FACS; format: cell-based, mouse; conditions: 24 hrs
Procedure: Cells were seeded on 35-mm dishes and cultured for 24 hrs, reaching 60–70% confluency. The cells were treated with different concentrations of Bisindolylmaleimide IX for 24 or 48 hrs, harvested by trypsinization, resuspended in 200 μl PBS, and fixed in 100% ethanol overnight at 4°C. The fixed cells were pelleted by centrifugation, resuspended in 800 μl PBS containing ribonuclease A (100 μg/ml) and incubated for 30 min at 37°C. Then 10 μl propidium iodide (PI, 4 mg/ml PBS) were added to the samples, which were assessed on a FACSCalibur flow cytometer using Cell Quest software (BD Bioscience).

[6] = Precipitation in cell cultures; format: physicochemical
[7] = tested on: tumors derived from HCT116; test: HCT116 carcinoma xenograft in nude mice; format: in vivo, mouse; conditions: 10 mg/kg for 7 days
Procedure: Male BALB/cASlac-nude mice (4-week-old) were purchased from Shanghai Slac Laboratory Animal C. LTD. The mice were kept in the SPF mouse facility for 1 week before being inoculated with HCT116 cells. HCT116 cells were harvested by trypsinization, counted and resuspended in PBS at the concentration of 5×10^7/ml. We injected subcutaneously 3×10^6 cells to BALB/cASlac nude mice's back. After 2 weeks, the mice were divided into 3 groups (6 mice per group) and were treated with 5-Iodotubercidin (Itu), Bisindolylmaleimide IX or solvent (PBS). The mice were weighed and the size of tumor measured. The length (L) and width (W) of the tumor were measured with a digital caliper and expressed as tumor volume (0.5L×W^2, mm^3).

In the case of CS(=O)(=O)O.Cn1cc(C2=C(c3cn(CCCSC(=N)N)c4ccccc34)C(=O)NC2=O)c2ccccc21 [Bisindolylmaleimide IX, 3-[1-[3-(Amidinothio)propyl]-3-indolyl]-4-(1-methyl-3-indolyl)-1H-pyrrole-2,5-dione methanesulfonate], the “cytotoxicity (in words)” value (HCT116 cells) is reported as “modest cytotoxicity”, the “lifespan of the mice” value [1] is reported as “extend the lifespan” and the “lifespan of the mice” value [2] is reported as “extend the lifespan”. For the same molecule, the IC50 (BCR-ABL MEF cells) was 3.46 µM, the Erk activation [3] was “inhibited Erk activation” and the IC50 (Vector MEF cells) was 7.37 µM. The “inhibitory effect on BCR-ABL activity in vivo (in cells)” value (BCR-ABL in BaF3 cells) was “negligible inhibitory effect”, the “DNA relaxation (topoisomerase) activity of extract from treated cells” value (DNA topoisomerase) was “partially lost this activity” and the IC50 (Vector BaF3 cells) was > 8 µM. The IC50 (Jak2) was 9.68 ± 0.79 µM, the growth of tumors [4] was “significantly inhibited growth of tumors” and the growth of tumors [5] was “significantly inhibited growth of the tumors”. The p53 protein up-regulation (p53 in primary MEFs) was “up-regulate p53 at the protein levels”, the γH2AX foci formation (γH2AX foci in MEFs) was “numerous foci positive for γH2AX” and the “cytotoxic effect (in words)” value (BCR-ABL BaF3 cells) was “most potent one”. The “cytotoxicity (in words)” value (primary MEFs; MEFs, compared to other genotoxic drugs such as Itu) was “modest cytotoxicity”, the IC50 (primary MEFs; Mus musculus, 24 h, read-out: IC50, cell survival) was 3.83 µM and the cell cycle profile (MEFs) was “increase in G2/M phase cells and a decrease in S phase cells”. For the same molecule, the “concentrations at which the compound seemed to precipitate in cell cultures” value [6] was “greater than 10 μM”, the “body weights of the mice” value [7] was “not affected” and the tumor size [7] was “did not go down”.
